Results on two substances are retold here after EP1593384A2, “Compositions for treatment of sexual dysfunction” (Palatin Technologies, Inc., priority 1999, dated 2005).

The subject of one test is human MC4-R. In words: Agonist activity by cAMP detection in transfected HEK 293 cells. Type of test: cell-based. The following applies: conclusion from cAMP results.
Test [1] deals with Sprague Dawley rats. In words: Induced penile erection by intravenous injection. Type of test: in vivo. The following applies: for dose resulting in (equivalent) penile response: intravenous injection in rats; for efficacious dose, efficacy determined by induction of penile erection in 100% of animals: intravenous injection, rats; for % Rats with Penile Erection / Number of Erections/Rat/30 Minutes: intravenous.

A further test concerns the target MC3-R. The conditions noted are these: read-out: RELATIVE BINDING (KI) MC3-R; competitive inhibition; transfected HEK 293 cells.
Test [2] deals with Sprague Dawley rats. In words: Induced penile erection by intranasal administration (dosing study). The class given is in vivo. The following applies: for % Rats with Penile Erection / Number of Erections/Rat/30 Minutes: intranasal.
The next test concerns the target MC5-R. The conditions noted are these: read-out: RELATIVE BINDING (KI) MC5-R; competitive inhibition; transfected HEK 293 cells.
A further test concerns the target MC1-R. The following applies: read-out: RELATIVE BINDING (KI) MC1-R; competitive inhibition; B16-F1 melanoma cells as receptor source.
Test [3] relates to men with psychogenic erectile dysfunction. The conditions noted are these: subcutaneous, 0.025 to 0.157 mg/kg body weight; cited from earlier work.

Protocol for MC1-R: (§1) Relative binding was determined by competitive inhibition using α-MSH. B16-F1 melanoma cells were used as the source of MC1 receptors; HEK 293 cells, transfected with human melanocortin receptor sequences, were used as the source of MC3, MC4 and MC5 receptors; and Y1 cells were used as the source of MC2 receptors.
Protocol for MC3-R: as §1
Protocol for MC5-R: as §1
Protocol for human MC4-R: HEK 293 cells, stably transfected with human MC4-R, were used. […] Following incubation, the medium was aspirated and cell layers extracted. The total cAMP accumulation in fixed quantities of cell extract was determined by competitive immunoassay using the cAMP kit.

As for “Ac-Nle-cyclo(-Asp-His-D-Phe-Arg-Trp-Lys)-OH [Compound 1]”, the “agonist activity to MC4-R” value in the test on human MC4-R is reported as “exhibits agonist activity”. For the same substance, in the test on Sprague Dawley rats [1], the “dose resulting in (equivalent) penile response” value is reported as 2 µg/kg of body weight and the “efficacious dose, efficacy determined by induction of penile erection in 100% of animals” value is ≥ 1 µg/kg of body weight.
Melanotan-II: the values for the Ki on MC3-R, on MC5-R and at MC1-R were 0.0237 µM, 0.0695 µM and 0.00012 µM, respectively. Moreover, the “% Rats with Penile Erection” value was 25% in the test on Sprague Dawley rats [2] (dose 100 µg/kg), 100% in the test on Sprague Dawley rats [2] (dose 500 µg/kg), 17% in the test with Sprague Dawley rats [1] (dose 10.0 µg/kg) and 75% with Sprague Dawley rats [1] (dose 100.0 µg/kg). Further, the “Number of Erections/Rat/30 Minutes” value came out at 0.25 in the test with Sprague Dawley rats [2] (dose 100 µg/kg), 1.0 with Sprague Dawley rats [2] (dose 500 µg/kg), 0.3 with Sprague Dawley rats [1] (dose 10.0 µg/kg) and 1.0 in the test with Sprague Dawley rats [1] (dose 100.0 µg/kg). Further, the “period in which the penile erection response primarily occurred” value with Sprague Dawley rats [2] (nasal administration, rats, 30 minutes) is 2nd and 3rd ten-minute period. In addition, the “dose resulting in (equivalent) penile response” value in the test on Sprague Dawley rats [1] is on record as 100 µg/kg of body weight. Also, the “efficacious dose, efficacy determined by induction of penile erection in 100% of animals” value in the test on Sprague Dawley rats [1] is given as ≥ 100 µg/kg of body weight. Besides, the “treated men developing clinically apparent erections” value in test [3] is reported as 8 of 10.
